In US20050042747A1, “Hivgp120-induced bob/gpr15 activation” (priority 2001, published 2005):
Entries after “also recorded” stand apart in the source; their conditions may differ.

Columns and labels:
[1] = test system: gp120-induced calcium signaling in HT-29 cells; assay: Inhibition of gp120-induced calcium signaling in HT-29 cells; type: cell-based, human; conditions: pretreatment
Protocol: (§1) Calcium studies were done on HT-29 cells and Ghost (3) cells loaded with Fluo 4. The cells were placed in Locke's buffer containing 5 μg/ml Fluo 4 AM ester (Molecular Probes) for 20 to 30 minutes, then in Locke's buffer for an additional 30 minutes before testing. Various concentrations of gp120IIIB (X4 trophic), gp120CM235 (R5 trophic), gp120mN (X4 trophic), gp12093TH975 (nonsyncytium-inducing primary isolate from an asymptomatic subject, trophism undetermined but likely R5), and gp120SF2 (X4R5 trophic), ranging from 10 nM to less than 1 pM, were added in Locke's buffer.^6 The gp120 proteins were obtained from the AIDS Research Reagent Referral Program. Some HT-29 cells were given one of the following pretreatments: 50 μg/ml anti-Bob37 overnight, 1 μg/ml pertussis toxin overnight, or 4.6 μg/ml U73122 for one hour. With the HT-29 cells only, similar tests were also performed with SDF-1, MIP-1α, MIP-1β, and RANTES rather than gp120. The cells were visualized every 4 seconds in a confocal microscope, using 488 nm argon laser excitation and detection filters appropriate for fluorescein-like dyes.
Blocking antibody experiments were done with HT-29 cells (monitoring calcium flux, microtubule loss, or transepithelial resistance), with Ghost (3) Bob cells (monitoring calcium flux) and peripheral blood mononuclear cells (monitoring calcium flux and HIV infection). Specifics of these protocols and the specific results are given herein. […] Antibody concentrations of 40 to 50 micrograms/ml overnight were needed for maximal effect.
(§2) For the first two or three days after plating, gp120 induces an immediate (within 4 seconds) calcium flux in undifferentiated HT-29 cells. The cells had previously been loaded with Fluo-4 AM ester (Molecular Probes, Eugene Oreg.) 5 micrograms/ml in the presence of Pleuronic F-127 0.02% in Locke's buffer for 30 minutes, then incubated at room temperature for an additional 30 minutes. Gp120IIIB was added while the cells were on an inverted confocal microscope using a 488 nm argon laser, with detection filters suitable for fluorescein-like dyes. […]

[2] = Interaction of synthetic Bob peptides with GalCer monolayer (surface pressure); type: binding, human; conditions: initial surface pressure 10 mN/m; at equilibrium; mean of three experiments ±SD
Protocol: Artificial membranes composed entirely of galactosyl ceramide with an alpha hydroxylated fatty acid were made. The surface pressure was measured with a microtensimeter (Kibron Inc., Finland) designed for the study of protein-lipid interactions. The peptides used for immunization were added to the subphase, and the surface pressure was continuously measured until equilibrium was reached. The increase in pressure was expressed in mN/m.
A monolayer of GalCer was prepared at the air-water interface at an initial surface pressure of 10 mN/m. The maximal surface surface pressure increase (Δπmax) reached at the equilibrium is indicated. The values are the mean of three separate experiments (±SD).
(§3) Galactosylceramide with an α-hydroxylated fatty acid (referred to as GalCer throughout this study) was either prepared from bovine brain (Sigma) or purified from HT-29-D4 membrane rafts (Fantini et al., 2000a). The surface pressure was measured with a microtensiometer (Kibron Inc., Finland) specially designed for studying protein-lipid interactions (Fantini et al., 2000a). The experiments were carried at 25° C. out in a laboratory equipped with a filtered air supply. A solution of GalCer was prepared extemporaneously in hexane:chloroform:methanol, 11:5:4 (v:v:v) at a concentration of 1 mg/ml. The lipid was carefully spread onto the meniscus of a pure water subphase (800 μl). The proteic ligand (GPR15/Bob peptides or HIV-1 gp120) was injected into the subphase with a 10 μl Hamilton syringe. The surface pressure was continuously measured as a function of time until reaching equilibrium corresponding to the maximal surface presure increase (Δπmax) expressed in mN/m.

[3] = test system: HT-29 cells; assay: Calcium signaling in HT-29 cells (Fluo 4, confocal microscope); type: cell-based, human
Protocol: HT-29 cells (from ATCC) were grown in DMEM-F12 with 10% bovine calf serum, and were used 24-48 hours after plating. The Ghost (3) cells were obtained from the AIDS Research and Reference Reagent Program, and were grown DMEM with 10% bovine calf serum supplemented with 500 μg/ml G418, 100 μg/ml hygromycin, and 1 μg/ml puromycin.^27 These cells were used 24 to 96 hours after plating.
as §1, §2

[4] = GalCer-gp120 interactions at the air-water interface (surface pressure); type: binding; conditions: gp120 5 nM in aqueous subphase
Protocol: A monomolecular film of GalCer was prepared at the air-water interface and gp120 purified from either IIIB (full squares), SEN (open circles) or 89.6 (full circles) isolates was added in the aqueous subphase at a concentration of 5 nM. The kinetics of the surface pressure increase induced by the viral glycoproteins are shown.
as §3
In a recent study, it was shown that the interaction between GalCer and gp120 purified from HIV-1(IIIB) was very efficient, whereas gp120s from 89.6 and SEN isolates interacted very weakly (Hammache et al., 1998). The kinetics of this interaction are an important physicochemical parameter allowing the direct comparison of GalCer recognition by various gp120s. In the experiment shown in FIG. 11, gp120 purified from IIIB, SEN, or 89.6 was injected underneath a monomolecular film of GalCer at the air-water interface. The GalCer film mimics the topology of a GalCer raft as it is organized in the external leaflet of the plasma membrane. For this reason, the Langmuir film balance technique is one of the most sensitive and reliable for studying protein-glycolipid interactions (Maggio et al., 1994). […] The surface increase indicates a condensing effect of the gp120 on the lipidic film due to its interaction with GalCer molecules (Hammache et al., 1998). […] At this time however, the level of interaction indicated by the absolute increase of the surface pressure was identical to the one of gp120(IIIB). […] The GalCer-binding capacity of gp120(SEN) was reevaluated and shown to occur much more slowly, but not less efficiently, than of gp120(IIIB).

[5] = test system: HT-29-D4 cells; assay: Transepithelial resistance (TEER) of differentiated HT-29-D4 cells; type: cell-based, human; conditions: electrophysiological medium
[6] = target: T1, Bob (Homo sapiens, UniProt P49685); assay: gp120-induced calcium flux, Ghost (3) cells transfected with Bob (Fluo-4); type: cell-based; design: key to minimal concentration of gp120 resulting in a significant calcium flux: — = no calcium flux seen at any dilution tested
T1 construct: host or cells: Ghost (3) cells (human osteosarcoma, also transfected with CD4 and a GFP reporter)
T1 sequence (P49685 1-360): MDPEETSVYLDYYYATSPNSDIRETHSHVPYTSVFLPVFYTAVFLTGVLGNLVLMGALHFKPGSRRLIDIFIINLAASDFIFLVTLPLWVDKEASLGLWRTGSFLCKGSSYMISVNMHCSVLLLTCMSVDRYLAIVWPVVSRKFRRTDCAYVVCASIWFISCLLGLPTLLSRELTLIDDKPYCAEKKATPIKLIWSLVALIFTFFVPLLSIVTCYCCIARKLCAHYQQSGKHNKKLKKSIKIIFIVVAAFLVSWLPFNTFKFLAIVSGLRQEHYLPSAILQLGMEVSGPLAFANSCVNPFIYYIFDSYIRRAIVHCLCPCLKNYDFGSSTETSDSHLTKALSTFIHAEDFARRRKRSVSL
Protocol: as §1
(§4) Human osteosarcoma cell lines were transfected to express CD4, one or another of the HIV coreceptors, and a Green Fluorescent Protein reporter for active HIV infection, for the purpose of testing which of the known coreceptors was used to induce HIV infection by a given HIV strain (Morner A. J Virol 73:2343-9, 1999 and Deng K Nature 388:296-300, 1997). These cells were obtained from the AIDS Research and Reference Reagent Program, courtesy of Dr. Vineet KewalRamani and Dr. Dan Littman. These cells were grown in DMEM with 10% bovine calf serum supplemented with 0.5 mg/ml G418, 0.1 mg/ml hygromycin, and 1 microgram/ml puromycin, and were used at low passage number (less than 10). We have discovered that these cell lines are also activated by gp120 of certain viral strains, inducing a calcium flux in these cells.
Within 4 days of plating, coreceptor-transfected Ghost (3) cells (as well as the parent cell line not transfected to express any HIV coreceptors as a control) were put in Locke's medium, then treated with Fluo-4 (5 micrograms/ml for 30 minutes at 37° C.). After an additional 30 minute incubation in Locke's buffer at room temperature, the cells were examined in a confocal microscope while gp120 of various viral strains was added, and the cells were examined at 4 second intervals to look for a gp120-induced calcium flux. The results are given in the following table, expressed as the minimal concentration of gp120 resulting in a significant calcium flux. “−” means that no reproducible calcium flux was observed. “ND” means that the gp120 of that viral strain was not tested with the stated coreceptor.
These cells were treated with serial dilutions (100 or 250 nM to at least 1 pM, or even less if calcium fluxes were noted) of gp120. Gp120s from each of four HIV-1 strains: IIIB, CM235, SF2, and […] were used. Listed is the greatest dilution which induced a significant, reproducible calcium flux. The parental line is known to express CXCR4 at very low levels. Those results indicated by an asterisk are thought to represent this artifact.

[7] = test system: Ghost (3) parental cell line; assay: gp120-induced calcium flux, Ghost (3) parental cell line; type: cell-based, human; design: key: — = no calcium flux seen at any dilution tested; conditions: Ghost (3) parental line
Protocol: as §1, §4
(§5) Within 4 days of plating, coreceptor-transfected Ghost (3) cells (as well as the parent cell line not transfected to express any HIV coreceptors as a control) were put in Locke's medium, then treated with Fluo-4 (5 micrograms/ml for 30 minutes at 37° C.). After an additional 30 minute incubation in Locke's buffer at room temperature, the cells were examined in a confocal microscope while gp120 of various viral strains was added, and the cells were examined at 4 second intervals to look for a gp120-induced calcium flux. The results are given in the following table, expressed as the minimal concentration of gp120 resulting in a significant calcium flux. “−” means that no reproducible calcium flux was observed. “ND” means that the gp120 of that viral strain was not tested with the stated coreceptor. […]

[8] = target: T2, CXCR4 (Homo sapiens, UniProt P61073); assay: gp120-induced calcium flux, Ghost (3) cells transfected with CXCR4; type: cell-based; design: key: — = no calcium flux seen at any dilution tested; conditions: Ghost (3) CXCR4 cells
T2 construct: host or cells: Ghost (3) cells (human osteosarcoma, CD4+)
Protocol: as §1, §4, §5

[9] = target: T3, CCR5 (Homo sapiens, UniProt P51681); assay: gp120-induced calcium flux, Ghost (3) cells transfected with CCR5; type: cell-based; design: key: — = no calcium flux seen at any dilution tested; conditions: Ghost (3) CCR5 cells
T3 construct: host or cells: Ghost (3) cells (human osteosarcoma, CD4+)
Protocol: as §1, §4, §5

[10] = test system: peripheral blood mononuclear cells; assay: gp120-induced calcium flux in peripheral blood mononuclear cells; type: cell-based, human; conditions: for inhibition of gp120IIIB-induced calcium flux, in words: pretreatment
Protocol: Normal human peripheral blood mononuclear cells were isolated by Ficoll gradient centrifugation, and loaded with the calcium sensitive dye Fluo-4. HIV gp120IIIB induced strong calcium fluxes in the range of 7 nM to 50 pM, and there was a weaker signal at 5 pM.
Experiments corresponding to those with HT-29 cells were done with peripheral blood mononuclear cells. These were isolated from the blood of a healthy, HIV-uninfected person by a Ficoll-Hypaque techique (Histopaque, Sigma), then loaded with Fluo-4 by a technique nearly identical to that used for HT-29 cells, except that Hank's buffer was used rather than Locke's, and the cells were centrifuged (2,000 g for 10 minutes) just before calcium flux measurements to improve adherence. Gp120-induced calcium fluxes were documented with as little as 5 pM gp120IIIB.

T2 sequence (P61073 whole entry): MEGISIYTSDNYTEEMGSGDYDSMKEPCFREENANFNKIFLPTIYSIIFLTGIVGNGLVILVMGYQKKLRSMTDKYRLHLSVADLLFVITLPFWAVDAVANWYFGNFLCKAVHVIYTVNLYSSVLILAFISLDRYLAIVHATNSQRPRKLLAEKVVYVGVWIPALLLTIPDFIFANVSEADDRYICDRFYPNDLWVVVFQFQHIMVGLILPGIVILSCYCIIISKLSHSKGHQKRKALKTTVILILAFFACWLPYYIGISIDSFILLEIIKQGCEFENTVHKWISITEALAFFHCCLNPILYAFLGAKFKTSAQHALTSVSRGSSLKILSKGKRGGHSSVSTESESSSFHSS
T3 sequence (P51681 whole entry): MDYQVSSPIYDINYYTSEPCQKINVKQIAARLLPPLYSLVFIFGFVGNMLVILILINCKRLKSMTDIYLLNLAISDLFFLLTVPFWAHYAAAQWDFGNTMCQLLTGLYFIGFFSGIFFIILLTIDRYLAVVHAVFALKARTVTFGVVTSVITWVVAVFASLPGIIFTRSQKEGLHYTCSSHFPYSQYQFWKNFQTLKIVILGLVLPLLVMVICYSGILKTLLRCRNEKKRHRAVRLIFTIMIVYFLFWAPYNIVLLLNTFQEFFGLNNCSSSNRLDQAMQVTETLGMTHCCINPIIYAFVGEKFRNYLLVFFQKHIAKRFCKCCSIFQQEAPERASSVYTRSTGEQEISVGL

For `COc1ccc2c(c1)CC[C@@H]1[C@@H]2CC[C@]2(C)[C@@H](NCCCCCCN3C(=O)CCC3=O)CC[C@@H]12` [U73343], the “inhibition of gp120-induced calcium signaling, in words” value [1] was “no inhibitory effect and not”.
“DKEASLGLWRTGSFLCK [P2, Bob peptide, first extracellular loop]” gave a Δπ max [2] of 5.40 ± 1.52 mN/m.
“HAEDFARRRKRSVSL [P1, Bob peptide, internal C-ter domain]” showed a Δπ max [2] of 1.89 ± 0.85 mN/m.
For “KNYDFGSSTETSDSHLTK [P6, Bob peptide, internal C-ter domain]”, the Δπ max [2] was 2.67 ± 0.40 mN/m.
“MDPEETSVYLDYYYATS [P3, Bob peptide, extracellular N-ter end]” gave a Δπ max [2] of 2.26 ± 0.12 mN/m.
“RELTLIDDKPYCAEKKAT [P5, Bob peptide, second extracellular loop]” gave a Δπ max [2] of 6.86 ± 1.37 mN/m.
In the case of “SDF-1: natural ligand of CXCR4 [reference compound]”, the “calcium signaling in HT-29 cells, in words” value [3] is reported as “substantial calcium signal; also recorded: induced similar calcium signaling”.
Work on “SGLRQEHYLPSAILQ [P4, Bob peptide, third extracellular loop]” yielded a Δπ max [2] of 5.21 ± 1.06 mN/m.
For “gp120(89.6): gp120 purified from primary isolate HIV-1(89.6)”, the “interaction with GalCer film, in words” value [4] was “very little association with GalCer”, the “maximal surface pressure increase relative to IIIB and SEN” value [4] was “less than 50%” and the “TEER response, in words” value [5] was “not observed”. The “TEER response, in words” value ([5]; listed as gp120 from 89.6) was “totally inactive”.
For “gp120MN: gp120 of HIV strain MN (X4 trophic)”, the “minimal concentration of gp120 resulting in a significant calcium flux” value ([6]; Ghost (3) Bob cells, 100 or 250 nM to at least 1 pM) was “—”, the “Bob activation / calcium signals in Bob-transfected Ghost (3) cells, in words” value ([6]; listed as MN) was “do not activate Bob; also recorded: did not cause calcium signals” and the “minimal concentration of gp120 resulting in a significant calcium flux” value [7] was “—”. The “minimal concentration of gp120 resulting in a significant calcium flux” value [8] was “—” and the “minimal concentration of gp120 resulting in a significant calcium flux” value [9] was “—”.
For heparin, the “inhibition of gp120IIIB-induced calcium flux” value ([10]; 15 minute preincubation of gp120IIIB with 40 micrograms/ml at 0-4° C., 200 nM gp120IIIB) was 40 fold, the “inhibition of gp120IIIB-induced calcium flux, in words” value [10] was “Inhibition” and the “inhibition of gp120IIIB-induced calcium flux, in words” value ([10]; listed as sodium heparin) was “inhibited the calcium flux”.
